Measurements as given in patent US20240101561A1, “NOVEL TETRAZOLES” (Boehringer Ingelheim International GmbH, priority 2019, published 2024).

Key:
human TRPA1 ion channel = human TRPA1 ion channel (Homo sapiens (Human), UniProt O75762); test: Assay A: TRPA1 cell assay (FLIPR, AITC-induced intracellular calcium); type: cell-based; conditions: HEK293 cells over-expressing human TRPA1; AITC 10 μM agonist; FLIPRtetra; read-out: hTRPA1 IC50
Method: A human HEK293 cell line over-expressing the human TRPA1 ion channel (Perkin Elmer, Product No. AX-004-PCL) was used as a test system for compound efficacy and potency.
Compound activity was determined by measuring the effect of compounds on intracellular calcium concentration induced by AITC (Allylisothiocyanat) agonism in a FLIPRtetra system (Molecular Devices).
The cells were obtained as frozen cells in cryo-vials and stored until use at −150° C. Cells were grown in culture medium (MEM/EBSS medium with 10% FCS and 0.4 mg/ML Geneticin). […] For sub-culturing cells were detached from flasks by Versene. At the day before the assay, cells were detached, washed twice with medium (MEM/EBSS medium with 10% FCS) and 20000 cells in 20 μl/well were seeded to Poly D-Lysin biocoated 384-well plates (black, clear bottom, Cat.356697) from Corning. Plates were incubated for 24 hours at 37° C./5% CO2 before use in the assay.
The test compounds were dissolved in 100% DMSO at a concentration of 10 mM and in a first step diluted in DMSO to a concentration of 5 mM, followed by serial dilution steps in 100% DMSO. Dilution factor and number of dilution steps may vary according to needs. Typically 8 different concentrations by 1:5 dilutions were prepared, further intermediate dilutions (1:20) of the substances were carried out with HBSS/HEPES buffer (1×HEPES,Cat.14065 from Gibco, 20 mM HEPES, Cat. 83264 from SIGMA, 0.1% BSA Cat.11926 from Invitrogen, pH 7,4
At the assay day cells were washed 3× with assay puffer, 20 μL buffer remained in the wells after washing. 10 μL Ca6 kit (Cat.R8191 MolecularDevices) loading buffer in HBSS/HEPES was added to the cells and the plates were incubated with lid for 120 minutes at 37°/5% CO2. 10 μL of compound or controls in HBSS/HEPES buffer/5% DMSO from the intermediate dilution plate were carefully added to the wells. […] Finally 10 μL of the agonist AITC 50 μM dissolved in HBSS/HEPES buffer/0,05% DMSO (final concentration 10 μM) was added to the wells followed by an additional read on the FLIPRtetra device for 10 minutes. The area under the signal curve (AUC) after AITC addition was used for IC50/% inhibition calculations
Data Evaluation and Calculation:
Each assay microtiter plate contained wells with vehicle (1% DMSO) controls instead of compound as controls for AITC induced luminescence (100% CTL; high controls) and wells with vehicle controls without AITC as controls for non-specific changes in luminescence (0% CTL; low controls).
The analysis of the data was performed by the calculation of the area under signal curve of the individual wells. Based on this values the % value for the measurement of each substance concentration was calculated (AUC(sample)−AUC(low))*100/(AUC(high)−AUC(low)) using MegaLab software (in house development). The IC50 values were calculated from the % control values using MegaLab software. Calculation: [y=(a−d)/(1+(x/c){circle around ( )}b)+d], a=low value, d=high value; x=conc M; c=IC50 M; b=hill; y=ctrl

[1] = Assay B: Microsomal clearance; type: in vitro ADME, human; conditions: pooled liver microsomes, 1 μM test compound, 37° C., NADPH
Method: Assay B: Microsomal Clearance:
The metabolic degradation of the test compound is assayed at 37° C. with pooled liver microsomes. The final incubation volume of 100 μl per time point contains TRIS buffer pH 7.6 at RT (0.1 M), magnesium chloride (5 mM), microsomal protein (1 mg/ml) and the test compound at a final concentration of 1 μM.
Following a short preincubation period at 37° C., the reactions are initiated by addition of beta-nicotinamide adenine dinucleotide phosphate, reduced form (NADPH, 1 mM) and terminated by transferring an aliquot into solvent after different time points (0, 5, 15, 30, 60 min). Additionally, the NADPH-independent degradation is monitored in incubations without NADPH, terminated at the last time point. The [%] remaining test compound after NADPH independent incubation is reflected by the parameter c(control) (metabolic stability). The quenched incubations are pelleted by centrifugation (10000 g, 5 min).
An aliquot of the supernatant is assayed by LC-MS/MS for the amount of parent compound. The half-life (t½ INVITRO) is determined by the slope of the semilogarithmic plot of the concentration-time profile.
The intrinsic clearance (CL_[…]) is calculated by considering the amount of protein in the incubation:
CL_[…] [μl/min/mg protein]=(Ln 2/(half-life [min]*protein content [mg/ml]))*1000
CL_[…]_INVIVO [ml/min/kg]=(CL_[…] [μL/min/mg protein]×MPPGL [mg protein/g liver]×liver factor [g/kg bodyweight])/1000

[2] = Assay C: Hepatocyte clearance; type: in vitro ADME, human; conditions: cryopreserved hepatocyte suspension, incubated six hours
Method: Assay C: Hepatocyte Clearance
The metabolic degradation of the test compound is assayed in a hepatocyte suspension. Hepatocytes (cryopreserved) are incubated in. Dulbecco's modified eagle medium (supplemented with 3.5 μg glucagon/500 mL, 2.5 mg insulin/500 mL and 3.75 mg/500 mL hydrocortison) containing 5% or 50% species serum.
Following a 30 min preincubation in an incubator (37° C., 10% CO2) 5 μl of test compound solution (80 μM; from 2 mM in DMSO stock solution diluted 1:25 with medium) are added into 395 μl hepatocyte suspension (cell density in the range 0.25-5 Mio cells/mL depending on the species, typically 1 Mio cells/mL; final concentration of test compound final DMSO concentration 0.05%).
The cells are incubated for six hours (incubator, orbital shaker) and samples (25 μl) are taken at 0, 0.5, 1, 2, 4 and 6 hours. Samples are transferred into acetonitrile and pelleted by centrifugation (5 min). The supernatant is transferred to a new 96-deepwell plate, evaporated under nitrogen and resuspended.
Decline of Parent Compound is Analyzed by HPLC-MS/MS
CLint is calculated as follows CL_[…]=Dose/AUC=(C0/CD)/(AUD+clast/k)×1000/60. C0: initial concentration in the incubation [μM], CD: cell density of vital cells [10e6cells/mL], AUD: area under the data [μM×h], clast: concentration of last data point [μM], k: slope of the regression line for parent decline [h−1].
The calculated in vitro hepatic intrinsic clearance can be scaled up to the intrinsic in vivo hepatic Clearance and used to predict hepatic in vivo blood clearance (CL) by the use of a liver model (well stirred model).
CL_[…]_INVIVO [ml/min/kg]=(CL_[…] [μL/min/10e6cells]×hepatocellularity[10e6cells/g liver]×liver factor [g/kg bodyweight])/1000
CL [ml/min/kg]=CL_[…]_INVIVO [ml/min/kg]×hepatic blood flow [ml/min/kg]/(CL_[…]_INVIVO [ml/min/kg]+hepatic blood flow [ml/min/kg])

[3] = Assay D: Metabolism in human hepatocytes in vitro; type: in vitro ADME; conditions: primary human hepatocytes, 10 μM test compound, up to six hours
Method: Assay D: Metabolism in Human Hepatocytes In Vitro
The metabolic pathway of a test compound is investigated using primary human hepatocytes in suspension.
Following a 30 min preincubation in a cell culture incubator (37° C., 10% CO2), test compound solution is spiked into the hepatocyte suspension to obtain a final cell density of 1.0*10^6 to 4.0*10^6 cells/ml (depending on the metabolic turnover rate of the compound observed with primary human hepatocytes), a final test compound concentration of 10 μM, and a final DMSO concentration of 0.05%.
The cells are incubated for six hours in a cell culture incubator on a horizontal shaker, and samples are removed from the incubation after 0, 0.5, 1, 2, 4 or 6 hours, depending on the metabolic turnover rate. Samples are quenched with acetonitrile and pelleted by centrifugation. The supernatant is transferred to a 96-deepwell plate, evaporated under nitrogen and resuspended prior to bioanalysis by liquid chromatography-high resolution mass spectrometry for identification of putative metabolites.

Chain of human TRPA1 ion channel (O75762 whole entry): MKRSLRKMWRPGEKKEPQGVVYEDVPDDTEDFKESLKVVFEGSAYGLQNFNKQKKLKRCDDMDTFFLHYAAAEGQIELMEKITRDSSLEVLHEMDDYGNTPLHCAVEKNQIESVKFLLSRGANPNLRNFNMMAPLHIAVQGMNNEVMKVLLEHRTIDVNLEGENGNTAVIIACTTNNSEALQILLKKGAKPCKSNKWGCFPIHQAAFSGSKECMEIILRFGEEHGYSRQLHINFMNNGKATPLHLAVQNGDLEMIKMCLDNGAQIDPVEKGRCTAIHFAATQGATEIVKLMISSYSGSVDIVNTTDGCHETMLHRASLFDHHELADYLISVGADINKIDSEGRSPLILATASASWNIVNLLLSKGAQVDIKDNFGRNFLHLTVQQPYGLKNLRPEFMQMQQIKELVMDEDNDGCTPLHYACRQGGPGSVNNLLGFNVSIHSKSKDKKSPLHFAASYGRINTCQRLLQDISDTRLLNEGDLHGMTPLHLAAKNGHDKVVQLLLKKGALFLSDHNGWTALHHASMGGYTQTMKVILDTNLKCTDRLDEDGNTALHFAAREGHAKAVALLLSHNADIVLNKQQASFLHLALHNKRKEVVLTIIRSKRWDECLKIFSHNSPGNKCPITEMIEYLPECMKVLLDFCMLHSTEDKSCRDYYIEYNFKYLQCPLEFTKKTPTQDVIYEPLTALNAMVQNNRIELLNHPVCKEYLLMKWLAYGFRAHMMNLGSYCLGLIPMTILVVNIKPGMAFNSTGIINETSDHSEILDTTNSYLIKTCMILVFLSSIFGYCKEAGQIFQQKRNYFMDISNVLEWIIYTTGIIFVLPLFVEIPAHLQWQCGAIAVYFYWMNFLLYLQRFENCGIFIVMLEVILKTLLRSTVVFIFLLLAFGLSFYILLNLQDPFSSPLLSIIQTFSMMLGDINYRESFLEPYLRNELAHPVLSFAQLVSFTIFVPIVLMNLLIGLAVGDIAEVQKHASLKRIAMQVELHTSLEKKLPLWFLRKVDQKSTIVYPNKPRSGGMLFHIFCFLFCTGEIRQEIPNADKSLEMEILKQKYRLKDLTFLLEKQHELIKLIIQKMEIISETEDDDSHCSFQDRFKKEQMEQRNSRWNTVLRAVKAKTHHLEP

SMILES	IC50 (human TRPA1 ion channel)	human LM [% Qh] [1]	human Hepatocytes [% Qh] [2]	Major metabolite observed: mechanism (Metabolite M1) [3]
Cc1ccn2ncn(Cc3nnn(C[C@H](O)c4ccc(Cl)cc4)n3)c(=O)c12 [Example 3]	75 nM	>89 % Qh	–	–
Cn1nnc2ncn(Cc3nnn(C[C@H](O)c4ccc(Cl)cc4)n3)c(=O)c21 [Example 1]	35 nM	<23 % Qh	<4 % Qh	–
Cn1cnc2cnn(Cc3nnn(C[C@H](O)c4ccc(Cl)cc4)n3)c(=O)c21 [Example 7]	275 nM	<23 % Qh	–	–
O=c1c2scnc2ncn1Cc1nnn(C[C@H](O)c2ccc(Cl)cc2)n1 [Example 4]	197 nM	<23 % Qh	–	–
Cc1ncn2ncn(Cc3nnn(C[C@H](O)c4ccc(Cl)cc4)n3)c(=O)c12 [Example 8]	27 nM	<23 % Qh	22 % Qh	–
Cn1cnc2nc(N)n(Cc3nnn(C[C@H](O)c4ccc(Cl)cc4)n3)c(=O)c21 [Example 2]	288 nM	–	–	–
Cn1cnc2ncn(Cc3nnn(C[C@H](O)c4ccc(Cl)cc4)n3)c(=O)c21 [Example 9, 1-({2-[(2R)-2-(4-chlorophenyl)-2-hydroxyethyl]-2H-1,2,3,4-tetrazol-5-yl}methyl)-7-methyl-6,7-dihydro-1H-purin-6-one]	72 nM	<23 % Qh	<4 % Qh	–
Cc1nn(C)c2ncn(Cc3nnn(C[C@H](O)c4ccc(Cl)cc4)n3)c(=O)c12 [Example 5]	27 nM	<23 % Qh	31 % Qh	N-Demethylation
